Measured values taken from publication PMC6172217, “A handheld platform for target protein detection and quantification using disposable nanopore strips” (Scientific Reports, 2018).

Tested on: 309 bp/bisPNA-affibody
Assay: EMSA, TNFα complex formation
Type: binding

TNFα
EMSA complex formation (309 bp/PNA-affibody + TNFα, 1 h room temperature, pH 7.4): full DNA/PNA-affibody/TNFα complex formation
EMSA saturation, ratio TNFα to scaffold/bisPNA-affibody (band intensity appears to saturate): ≥ 3 X
